Publication PMC12096666, “Synthesis, in vitro and in silico studies of a novel chrysin-ferrocene Schiff base with potent anticancer activity via G1 arrest, caspase-dependent apoptosis and inhibition of topoisomerase II” (Journal of Enzyme Inhibition and Medicinal Chemistry, 2025)
Where “and” joins values, the source holds several entries; their conditions need not be identical. Identical values can stand only once.

Legend:
HCT116 cells = test: MTT cell viability assay, HCT116; type: cell-based; conditions: Homo sapiens, HCT-116, 72 h, mean ± SD of three experiments
Description: (§1) Liver cancer (HepG2), colon cancer (HCT116), lung cancer (A549), breast cancer (MCF7) and normal lung (MRC5) cells were obtained from ATCC (Rockville, USA). Cells were cultured in RPMI-1640 enriched with 10% foetal calf serum and 50 µg/ml gentamycin. They were incubated at 37 °C in a humidified environment containing 5% CO2 and passaged 2–3 times/week.
(§2) The MTT assay was conducted as previously reported. Cell lines were seeded at 5x10^4 cells/well and incubated for 24 h. CFSB was added in twelve concentrations, alongside vehicle controls and vinblastine sulphate as a positive control. After 72 h of incubation, cell viability was assessed using the MTT assay. Media was replaced, followed by the addition of MTT solution. DMSO was later added and optical density was measured at 590 nm using a microplate reader (TECAN, USA). IC50 values were calculated using Graphpad Prism (San Diego, USA). The experiment was repeated three times.

MDA-MB-231 = conditions: triple negative breast cancer cell line; values as low as; cited from earlier work
TrkA = target: T1, TrkA (Homo sapiens, UniProt P04629); test: TrkA inhibition assay; type: biochemical; conditions: mean ± SD of three experiments
T1 construct: purchased BPS Bioscience
T1 sequence (P04629 33-796): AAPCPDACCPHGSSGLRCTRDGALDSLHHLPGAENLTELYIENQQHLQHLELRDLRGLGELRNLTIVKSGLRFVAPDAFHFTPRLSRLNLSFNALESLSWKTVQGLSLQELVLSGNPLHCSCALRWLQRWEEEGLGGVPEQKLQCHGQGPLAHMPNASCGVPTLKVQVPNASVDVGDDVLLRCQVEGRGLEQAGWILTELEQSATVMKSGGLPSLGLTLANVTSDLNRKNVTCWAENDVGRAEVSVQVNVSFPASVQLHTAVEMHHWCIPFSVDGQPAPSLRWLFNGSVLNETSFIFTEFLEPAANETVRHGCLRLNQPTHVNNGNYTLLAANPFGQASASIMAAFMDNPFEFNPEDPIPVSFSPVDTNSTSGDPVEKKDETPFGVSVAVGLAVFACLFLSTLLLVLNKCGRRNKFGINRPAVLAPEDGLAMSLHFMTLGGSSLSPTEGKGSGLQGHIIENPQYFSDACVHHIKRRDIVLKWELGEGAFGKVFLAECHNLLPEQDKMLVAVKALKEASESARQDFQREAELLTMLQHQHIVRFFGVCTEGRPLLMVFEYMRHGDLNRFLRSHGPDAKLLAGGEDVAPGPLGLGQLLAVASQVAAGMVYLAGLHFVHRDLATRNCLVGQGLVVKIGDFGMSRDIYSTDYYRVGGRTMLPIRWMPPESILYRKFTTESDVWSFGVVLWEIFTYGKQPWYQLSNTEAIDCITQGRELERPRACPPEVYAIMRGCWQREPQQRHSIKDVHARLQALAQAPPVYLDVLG
Description: (§3) CDK2 kinase assay was performed using the CDK2 kinase assay kit (BPS Bioscience, USA) as previously described. The EGFR kinase assay was performed in 96-well plates coated with PGT (poly l-glutamic acid l-tyrosine, Sigma Aldrich, USA) using the EGFR kinase assay kit (BPS Bioscience, USA) and was conducted as previously described. The VEGFR-2 kinase assay was carried out in 96-well streptavidin coated plate using recombinant human VEGFR-2/KDR ELISA kit as previously described. The tropomyosin receptor kinases (TRK) inhibition assay was performed using TrkA assay kit (BPS Bioscience, USA) as per the manufacturer’s instructions. Topoisomerase II assay was performed using the human topoisomerase II relaxation assay kit (Inspiralis, UK) which involved relaxing supercoiled pBR322 DNA substrate by the enzyme. The relaxation assay was conducted as per the manufacturer’s instructions and as previously reported.

VEGFR = target: T2, VEGFR (Homo sapiens, UniProt P35968); test: VEGFR-2 kinase assay; type: biochemical; conditions: mean ± SD of three experiments
T2 construct: purchased
T2 sequence (P35968 20-1356): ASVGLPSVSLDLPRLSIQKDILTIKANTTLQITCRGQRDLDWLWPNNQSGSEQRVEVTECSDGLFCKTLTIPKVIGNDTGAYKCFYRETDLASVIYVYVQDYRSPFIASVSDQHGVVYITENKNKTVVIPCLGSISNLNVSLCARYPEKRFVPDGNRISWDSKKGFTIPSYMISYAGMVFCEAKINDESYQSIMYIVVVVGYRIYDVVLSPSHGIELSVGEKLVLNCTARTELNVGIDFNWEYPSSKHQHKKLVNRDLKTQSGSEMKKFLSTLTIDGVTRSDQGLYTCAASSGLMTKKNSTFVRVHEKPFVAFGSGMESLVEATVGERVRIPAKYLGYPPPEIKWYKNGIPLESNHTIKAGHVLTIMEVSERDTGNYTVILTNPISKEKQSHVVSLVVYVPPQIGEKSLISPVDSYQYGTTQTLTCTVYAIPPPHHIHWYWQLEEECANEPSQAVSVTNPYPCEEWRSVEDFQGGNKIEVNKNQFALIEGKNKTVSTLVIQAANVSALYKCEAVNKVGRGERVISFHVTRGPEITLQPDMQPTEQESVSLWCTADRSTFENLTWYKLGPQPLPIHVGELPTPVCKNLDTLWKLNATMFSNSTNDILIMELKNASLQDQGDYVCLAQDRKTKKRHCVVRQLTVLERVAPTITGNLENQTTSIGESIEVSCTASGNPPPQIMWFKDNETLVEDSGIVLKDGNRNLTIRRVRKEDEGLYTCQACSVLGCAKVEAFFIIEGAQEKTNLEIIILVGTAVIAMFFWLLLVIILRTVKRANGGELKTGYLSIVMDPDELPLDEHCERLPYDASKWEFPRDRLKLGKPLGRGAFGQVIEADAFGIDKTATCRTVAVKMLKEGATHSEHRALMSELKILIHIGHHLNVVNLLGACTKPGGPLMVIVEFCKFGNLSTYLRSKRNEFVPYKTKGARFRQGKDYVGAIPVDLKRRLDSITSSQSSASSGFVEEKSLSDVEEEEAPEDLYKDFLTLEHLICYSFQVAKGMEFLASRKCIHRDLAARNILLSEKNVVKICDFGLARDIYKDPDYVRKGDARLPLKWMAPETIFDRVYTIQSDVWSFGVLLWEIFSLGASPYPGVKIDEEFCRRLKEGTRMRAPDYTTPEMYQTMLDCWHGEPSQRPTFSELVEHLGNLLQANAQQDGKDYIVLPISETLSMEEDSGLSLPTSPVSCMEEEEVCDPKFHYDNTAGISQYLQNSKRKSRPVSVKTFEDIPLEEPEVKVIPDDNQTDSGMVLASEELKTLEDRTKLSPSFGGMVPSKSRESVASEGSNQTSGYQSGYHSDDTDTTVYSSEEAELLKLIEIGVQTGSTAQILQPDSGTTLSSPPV
Description: as §3

human topoisomerase II = test: Human topoisomerase II relaxation assay (pBR322); type: biochemical; conditions: relaxation of supercoiled pBR322 DNA; mean ± SD of three experiments
Description: as §3
The potential inhibition of topoisomerase II by CFSB was evaluated using human topoisomerase II assay. This assay involves measuring the ability of topoisomerase II enzyme to relax supercoiled DNA (pBR322)[68].

tubulin = target: T3, tubulin (Sus scrofa, UniProt P02550+P02554); test: Tubulin polymerisation assay; type: biochemical; conditions: fluorescence, tubulin from porcine brain; mean ± SD of three experiments
T3 construct: polymerisation of tubulin, isolated from porcine brain tissue; purchased Cytoskeleton, Inc; host or cells: porcine brain tissue
T3 sequence (P02554 whole entry): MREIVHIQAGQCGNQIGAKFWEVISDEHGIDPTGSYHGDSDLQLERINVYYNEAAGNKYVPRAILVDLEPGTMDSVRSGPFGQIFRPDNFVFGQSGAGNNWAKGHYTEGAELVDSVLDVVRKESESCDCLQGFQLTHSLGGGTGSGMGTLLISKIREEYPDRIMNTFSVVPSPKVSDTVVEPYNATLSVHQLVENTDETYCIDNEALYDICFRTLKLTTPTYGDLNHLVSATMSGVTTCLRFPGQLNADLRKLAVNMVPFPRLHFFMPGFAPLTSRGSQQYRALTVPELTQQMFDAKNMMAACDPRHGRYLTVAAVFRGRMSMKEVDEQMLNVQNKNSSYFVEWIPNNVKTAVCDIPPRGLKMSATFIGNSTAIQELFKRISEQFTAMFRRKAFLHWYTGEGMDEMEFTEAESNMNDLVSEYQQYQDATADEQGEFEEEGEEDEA
T3 sequence (P02550 whole entry): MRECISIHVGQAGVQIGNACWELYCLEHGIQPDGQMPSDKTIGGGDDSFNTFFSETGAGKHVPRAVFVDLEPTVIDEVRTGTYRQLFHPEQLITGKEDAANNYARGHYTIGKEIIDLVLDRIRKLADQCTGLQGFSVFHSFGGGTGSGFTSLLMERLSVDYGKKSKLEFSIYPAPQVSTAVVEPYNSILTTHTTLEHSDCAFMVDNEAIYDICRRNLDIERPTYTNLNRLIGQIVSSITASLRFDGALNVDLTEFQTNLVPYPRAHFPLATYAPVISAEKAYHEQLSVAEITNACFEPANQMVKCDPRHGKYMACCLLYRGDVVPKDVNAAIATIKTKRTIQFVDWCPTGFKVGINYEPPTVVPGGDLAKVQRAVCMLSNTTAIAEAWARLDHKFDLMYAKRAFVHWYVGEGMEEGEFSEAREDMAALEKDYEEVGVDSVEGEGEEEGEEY
Description: The assay was performed using the tubulin polymerisation assay kit (Cytoskeleton, Inc, USA) as per the manufacturer’s instructions and as previously reported. […] Polymerisation dose-response curves were obtained by measuring changes in fluorescence intensity at each compound concentration. Fluorescence was measured at an excitation of 360 nm and emission of 450 nm using a Tecan-spark reader.
A tubulin polymerisation assay was used in order to assess the potential of CFSB as a tubulin polymerisation inhibitor. The assay involved observing the polymerisation of tubulin, isolated from porcine brain tissue, in the presence of CFSB. Changes in polymerisation were monitored via changes in fluorescence intensity.

CDK2 = target: T4, CDK2 (Homo sapiens, UniProt P24941); test: CDK2 kinase assay; type: biochemical; conditions: mean ± SD of three experiments
T4 construct: purchased BPS Bioscience
Description: as §3

EGFR = target: T5, EGFR (Homo sapiens, UniProt P00533); test: EGFR kinase assay; type: biochemical; conditions: mean ± SD of three experiments
T5 construct: purchased BPS Bioscience
T5 sequence (P00533 25-1210): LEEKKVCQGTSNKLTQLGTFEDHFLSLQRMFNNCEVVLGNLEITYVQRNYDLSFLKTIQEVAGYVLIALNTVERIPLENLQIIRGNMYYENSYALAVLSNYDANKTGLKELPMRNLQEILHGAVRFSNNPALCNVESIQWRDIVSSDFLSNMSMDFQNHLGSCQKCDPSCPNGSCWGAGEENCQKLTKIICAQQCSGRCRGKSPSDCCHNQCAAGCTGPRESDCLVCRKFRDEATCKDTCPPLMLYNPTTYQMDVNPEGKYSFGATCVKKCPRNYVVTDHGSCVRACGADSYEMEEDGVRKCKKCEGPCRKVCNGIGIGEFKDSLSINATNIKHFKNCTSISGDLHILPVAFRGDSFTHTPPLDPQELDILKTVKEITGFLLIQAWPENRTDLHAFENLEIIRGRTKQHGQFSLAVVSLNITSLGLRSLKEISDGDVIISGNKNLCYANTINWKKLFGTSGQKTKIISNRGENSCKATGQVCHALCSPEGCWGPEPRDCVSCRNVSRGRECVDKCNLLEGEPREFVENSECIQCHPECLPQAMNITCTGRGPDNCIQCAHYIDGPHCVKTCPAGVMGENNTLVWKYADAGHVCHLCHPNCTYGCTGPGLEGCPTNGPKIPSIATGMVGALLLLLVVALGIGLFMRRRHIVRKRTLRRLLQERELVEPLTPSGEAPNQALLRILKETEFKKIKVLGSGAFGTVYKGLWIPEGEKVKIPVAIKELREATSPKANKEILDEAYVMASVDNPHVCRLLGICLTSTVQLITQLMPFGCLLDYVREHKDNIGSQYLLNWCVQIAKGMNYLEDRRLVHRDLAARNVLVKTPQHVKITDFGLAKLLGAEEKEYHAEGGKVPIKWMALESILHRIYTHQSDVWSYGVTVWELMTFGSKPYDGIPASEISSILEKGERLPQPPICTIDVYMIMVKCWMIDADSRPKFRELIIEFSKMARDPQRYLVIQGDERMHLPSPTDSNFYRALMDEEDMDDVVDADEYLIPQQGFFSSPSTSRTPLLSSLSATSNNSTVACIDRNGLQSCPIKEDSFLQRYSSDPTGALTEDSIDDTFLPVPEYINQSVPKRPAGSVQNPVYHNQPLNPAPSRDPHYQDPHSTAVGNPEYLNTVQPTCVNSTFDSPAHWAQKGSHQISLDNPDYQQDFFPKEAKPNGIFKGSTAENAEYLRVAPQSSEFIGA
Description: as §3

A549 cells = test: MTT cell viability assay, A549; type: cell-based; conditions: Homo sapiens, 72 h, mean ± SD of three experiments
Description: The MTT assay was conducted as previously reported[20]. Cell lines were seeded at 5x10^4 cells/well and incubated for 24 h. […] After 72 h of incubation, cell viability was assessed using the MTT assay. Media was replaced, followed by the addition of MTT solution. DMSO was later added and optical density was measured at 590 nm using a microplate reader (TECAN, USA). IC50 values were calculated using Graphpad Prism (San Diego, USA). The experiment was repeated three times.

MCF7 cells = test: MTT cell viability assay, MCF7; type: cell-based; conditions: Homo sapiens, 72 h, mean ± SD of three experiments
Description: as §1, §2

HepG2 cells = test: MTT cell viability assay, HepG2; type: cell-based; conditions: Homo sapiens, 72 h, mean ± SD of three experiments
Description: as §1, §2

Work on `COc1cccc2c1C(=O)c1c(O)c3c(c(O)c1C2=O)C[C@@](O)(C(=O)CO)C[C@@H]3O[C@H]1C[C@H](N)[C@H](O)[C@H](C)O1` [Doxorubicin] yielded an IC50 (HCT116 cells) of 3.16 ± 0.38 µM.

For `O=C(COc1cc(O)c2c(=O)cc(-c3ccccc3)oc2c1)N/N=C/c1ccc(O)cc1O` [Chrysin-De-allyl-Pac-1], the IC50 (MDA-MB-231) is given as no less than 5.98 µM.

With `Oc1cc(O)c2c(=N[C]34[CH]5[CH]6[CH]7[CH]3[Fe]6754389%10[CH]4[CH]3[CH]8[CH]9[CH]4%10)cc(-c3ccccc3)oc2c1` (stereo not drawn) [CFSB, cyclopenta-2,4-dien-1-yl(5-((5,7-dihydroxy-2-phenyl-4H-chromen-4-ylidene)amino)cyclopenta-2,4-dien-1-yl)iron] the IC50 (TrkA) was greater than 100 µM, the IC50 (VEGFR) was greater than 100 µM and the IC50 (human topoisomerase II) was 20 µM and 20.1 µM. For the same compound, the IC50 (tubulin) was 76 µM and 76.4 µM, the IC50 (CDK2) was greater than 100 µM and the IC50 (EGFR) was greater than 100 µM.

With `CC[C@]1(O)C[C@@H]2CN(CCc3c([nH]c4ccccc34)[C@@](C(=O)OC)(c3cc4c(cc3OC)N(C)[C@H]3[C@@](O)(C(=O)OC)[C@H](OC(C)=O)[C@]5(CC)C=CCN6CC[C@]43[C@@H]65)C2)C1` [Vinblastine sulphate] the IC50 (HCT116 cells) was 1.75 ± 0.19 µM, the IC50 (A549 cells) was 4.15 ± 0.31 µM and the IC50 (MCF7 cells) was 2.27 ± 0.25 µM. The IC50 (HepG2 cells) was 0.89 ± 0.1 µM.
